The structures appear in SMILES notation.

Holding throughout (format): in vivo
Common to all, as to details: Glufosinate 3000 ml/ha, Triacontanol 500 ml/ha

The subject of experiment [1] is PANRP (Brachiaria reptans). Description: Field trial, weed control in papaya orchard, PANRP. Here is the method:
(§1) Field trials were carried out to test the synergy of the combination Glufosinate and Triacontanol. The field trials were carried out at Murari, A.P. The percentage efficacy was calculated after 15, 25 and 30 days of applications. The application was in the open space among the plants in a Papaya orchard and the results are recorded in the table below:—

The subject of experiment [2] is TRTPO (Trianthema portulacastrum). Description: Field trial, weed control in papaya orchard, TRTPO. Here is the method:
as §1
(§2) TRTPO—Trianthema portulacastrum, COMBE—Commelina benghalensis, AMASP—Amaranthus spinosus, PTNHY—Parthenium hysterophorus, 1CRGG—Corchorus, DIMRE—Dinebra retroflexa, CYNDH—Cynodon dactylon, CYPRO—Cyperus rotundus, EPHHL—Euphorbia heterophylla

Experiment [3] deals with COMBE (Commelina benghalensis). Description: Field trial, weed control in papaya orchard, COMBE. Here is the method:
as §1, §2

Experiment [4] concerns AMASP (Amaranthus spinosus). Description: Field trial, weed control in papaya orchard, AMASP. On the procedure: as §1, §2
In experiment [5] the test system is PTNHY (Parthenium hysterophorus). Description: Field trial, weed control in papaya orchard, PTNHY. Here is the method:
as §1, §2

For a further experiment, the system named is 1CRGG (Corchorus). Description: Field trial, weed control in papaya orchard, 1CRGG. On the procedure: as §1, §2
Experiment [6] concerns DIMRE (Dinebra retroflexa). Description: Field trial, weed control in papaya orchard, DIMRE. Here is the method: as §1, §2
A further experiment relates to CYNDH (Cynodon dactylon). Description: Field trial, weed control in papaya orchard, CYNDH. On the procedure:
as §1, §2

For the next experiment, the system named is CYPRO (Cyperus rotundus). Description: Field trial, weed control in papaya orchard, CYPRO. On the procedure:
as §1, §2

Experiment [7] has as its system EPHHL (Euphorbia heterophylla). Description: Field trial, weed control in papaya orchard, EPHHL. Here is the method: as §1, §2

Take `CP(=O)(O)CCC(N)C(=O)O` (centres unmarked) [Glufosinate]: in experiment [1] (15 DAA), the “% Weed control at 15 DAA” value amounted to 85%. Besides, the “% Weed control at 25 DAA” value in experiment [1] (25 DAA) is given as 65%. Besides, the “% Weed control at 30 DAA TRTPO” value in experiment [2] was determined as 81%. The “% Weed control at 30 DAA COMBE” value in experiment [3] is given as 47%. The “% Weed control at 30 DAA AMASP” value in experiment [4] was found to be 73%. In addition, in [5], the “% Weed control at 30 DAA PTNHY” value is listed as 96%. For the same compound, the “% Weed control at 30 DAA 1CRGG” value in the experiment on 1CRGG (Corchorus) was 69%. Further, the “% Weed control at 30 DAA DIMRE” value in [6] is given as 62%. Further, the “% Weed control at 30 DAA CYNDH” value with CYNDH (Cynodon dactylon) came to 54%. Also, the “% Weed control at 30 DAA CYPRO” value in the experiment with CYPRO (Cyperus rotundus) is on record as 11%. In addition, in experiment [7], the “% Weed control at 30 DAA EPHHL” value is 80%.
